From ChEMBL document CHEMBL1145358, “2-Phenyl-2,3-dihydro-1H-imidazo[1,2-b]pyrazole derivatives: new potent inhibitors of fMLP-induced neutrophil chemotaxis” (Bioorg Med Chem Lett, 2007)

Assays:
[1] = Inhibition of fMLP-OMe-induced chemotaxis in human neutrophils; type: functional
fMet-Leu-Phe receptor = target: T1, fMet-Leu-Phe receptor (Homo sapiens, UniProt P21462); assay: Displacement of [3H]-fMLP from FPR in human neutrophils
T1 sequence (P21462 whole entry): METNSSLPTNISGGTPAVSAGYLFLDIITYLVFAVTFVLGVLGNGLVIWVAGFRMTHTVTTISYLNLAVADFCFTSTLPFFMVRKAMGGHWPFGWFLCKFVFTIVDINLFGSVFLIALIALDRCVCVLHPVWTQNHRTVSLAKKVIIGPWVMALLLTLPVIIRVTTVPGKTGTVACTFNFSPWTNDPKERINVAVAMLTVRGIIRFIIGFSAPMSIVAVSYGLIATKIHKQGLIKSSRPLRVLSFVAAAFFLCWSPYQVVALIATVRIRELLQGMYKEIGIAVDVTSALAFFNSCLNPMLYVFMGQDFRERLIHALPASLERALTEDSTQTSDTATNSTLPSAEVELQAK

Row | IC50 [1] | Ki (fMet-Leu-Phe receptor) | SMILES
1 | 10 µM | > 10 µM | O=C(NCc1ccccc1)c1cnn2c1NC(c1ccccc1)C2 (centres undefined)
2 | 0.00752 µM | > 10 µM | CC(C)(C)NC(=O)c1cnn2c1NC(c1ccccc1)C2 (centres undefined)
3 | 0.00048 µM | > 10 µM | O=C(NC1CC1)c1cnn2c1NC(c1ccccc1)C2 (centres undefined)
4 | 0.029 µM | > 10 µM | c1ccc(C2Cn3nccc3N2)cc1 (centres undefined)
5 | 2.4 µM | > 10 µM | CCOC(=O)c1cnn2c1NC(c1ccccc1)C2 (centres undefined)
6 | 0.3 µM | > 10 µM | O=C(c1cnn2c1NC(c1ccccc1)C2)N1CCOCC1 (centres undefined)
7 | 0.00116 µM | > 10 µM | O=C(O)c1cnn2c1NC(c1ccccc1)C2 (centres undefined)
8 | 0.00101 µM | > 10 µM | O=C(c1cnn2c1NC(c1ccccc1)C2)N1CCCCCC1 (centres undefined)
9 | 0.00367 µM | > 10 µM | NC(=O)c1cnn2c1NC(c1ccccc1)C2 (centres undefined)
10 | 0.027 µM | > 10 µM | O=C(c1cnn2c1NC(c1ccccc1)C2)N1CCN(Cc2ccccc2)CC1 (centres undefined)
11 | 0.00148 µM | > 10 µM | O=C(c1cnn2c1NC(c1ccccc1)C2)N1CCCCC1 (centres undefined)
12 | 9 µM | > 10 µM | O=C(c1cnn2c1NC(c1ccccc1)C2)N1CCCC1 (centres undefined)
